Literature values in US20020102214A1, “Paramagnetic material-containing magnetic resonance external marker or calibration composition” (NYCOMED IMAGING AS., priority 1996, published 2002).

Details: at MRI fields, between 20° C. to 35° C., based on relaxivity data

variation of signal intensity with temperature: about 20%
SMILES: O=C([O-])CN(CCN(CC(=O)[O-])CC(=O)O)CCN(CC(=O)[O-])CC(=O)O.[Gd+3] [GdDTPA]
